# Measured values published in ChEMBL document CHEMBL1140984, “A small molecule inhibitor of alpha4 integrin-dependent cell migration” (Bioorg Med Chem, 2009).
# Calls of active or inactive are those of the source. The rule behind the calls is not given here.
# Key:
# [1] = target: T1, Gamma-parvin (Homo sapiens) (UniProt Q9HBI0); experiment: Binding affinity to gamma-parvin in human Jurkat cells at 100 uM by Western blot analysis; type: cell-based
# T1 sequence (whole entry): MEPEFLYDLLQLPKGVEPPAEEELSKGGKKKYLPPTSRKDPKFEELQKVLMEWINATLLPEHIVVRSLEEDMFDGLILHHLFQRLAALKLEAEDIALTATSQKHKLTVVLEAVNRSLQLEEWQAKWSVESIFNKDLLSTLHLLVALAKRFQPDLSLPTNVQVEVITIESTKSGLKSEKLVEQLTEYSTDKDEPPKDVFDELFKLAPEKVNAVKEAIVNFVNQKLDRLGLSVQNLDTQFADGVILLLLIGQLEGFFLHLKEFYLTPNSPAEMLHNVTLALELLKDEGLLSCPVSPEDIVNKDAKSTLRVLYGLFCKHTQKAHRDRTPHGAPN
# [2] = target: Integrin alpha-4 (Homo sapiens) (UniProt P13612); experiment: Inhibition of alpha4 integrin-dependent cell migration in SDF1-alpha-stimulated human U937 cells at 1 or 5 uM after 4.5 hrs; type: cell-based; parameters: scale not given: the % may be the effect or the level left; conditions: U-937
# Chain of Integrin alpha-4 (Homo sapiens) (P13612 whole entry): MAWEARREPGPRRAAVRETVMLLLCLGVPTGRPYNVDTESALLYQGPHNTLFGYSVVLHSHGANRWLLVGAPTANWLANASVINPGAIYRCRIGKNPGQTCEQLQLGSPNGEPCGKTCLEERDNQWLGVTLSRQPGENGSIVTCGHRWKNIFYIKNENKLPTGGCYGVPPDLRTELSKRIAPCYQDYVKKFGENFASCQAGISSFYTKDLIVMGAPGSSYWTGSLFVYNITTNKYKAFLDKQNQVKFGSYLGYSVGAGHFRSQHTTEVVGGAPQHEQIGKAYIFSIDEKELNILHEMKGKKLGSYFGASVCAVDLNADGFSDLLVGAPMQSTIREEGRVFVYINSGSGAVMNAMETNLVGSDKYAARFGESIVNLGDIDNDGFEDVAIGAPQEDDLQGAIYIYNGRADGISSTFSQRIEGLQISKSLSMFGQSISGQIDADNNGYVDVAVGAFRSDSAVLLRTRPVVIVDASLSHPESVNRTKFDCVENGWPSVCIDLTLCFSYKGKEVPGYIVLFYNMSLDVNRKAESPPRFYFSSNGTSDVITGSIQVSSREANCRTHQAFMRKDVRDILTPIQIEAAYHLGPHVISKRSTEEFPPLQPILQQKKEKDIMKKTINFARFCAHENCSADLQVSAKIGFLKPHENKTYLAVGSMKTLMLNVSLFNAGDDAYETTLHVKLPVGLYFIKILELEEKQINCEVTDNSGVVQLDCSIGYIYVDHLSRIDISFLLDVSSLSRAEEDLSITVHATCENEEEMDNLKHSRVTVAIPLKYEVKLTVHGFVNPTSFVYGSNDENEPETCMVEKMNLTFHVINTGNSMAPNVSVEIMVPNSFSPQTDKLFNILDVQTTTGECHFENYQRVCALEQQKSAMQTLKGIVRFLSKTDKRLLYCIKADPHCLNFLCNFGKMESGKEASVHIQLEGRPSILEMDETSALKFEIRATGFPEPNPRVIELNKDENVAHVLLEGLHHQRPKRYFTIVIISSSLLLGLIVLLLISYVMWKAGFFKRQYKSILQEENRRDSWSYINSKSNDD
# [3] = test system: Jurkat; experiment: Inhibition of human Jurkat T cell motility after 4.5 hrs by modified Boyden chamber assay; type: functional, cell-based
# [4] = target: Integrin alpha-4 (Homo sapiens) (UniProt P13612); experiment: Inhibition of alpha4 integrin-dependent cell migration in SDF1-alpha-stimulated human Jurkat cells at 1 or 5 uM after 4.5 hrs; type: cell-based; parameters: scale not given: the % may be the effect or the level left
# [5] = target: Integrin alpha-4 (Homo sapiens) (UniProt P13612); experiment: Inhibition of alpha4 integrin-dependent cell migration in PMA-stimulated human U937 cells at 1 or 5 uM after 4.5 hrs; type: cell-based; parameters: scale not given: the % may be the effect or the level left; conditions: U-937
# [6] = target: Integrin alpha-4 (Homo sapiens) (UniProt P13612); experiment: Inhibition of alpha4 integrin-dependent cell migration in PMA-stimulated human Jurkat cells at 1 or 5 uM after 4.5 hrs; type: cell-based; parameters: scale not given: the % may be the effect or the level left
# [7] = target: Adenosine kinase (Homo sapiens) (UniProt P55263); experiment: Binding affinity to ADK in human Jurkat cells at 100 uM by Western blot analysis; type: cell-based
# Chain of Adenosine kinase (Homo sapiens) (P55263 2-362 limits assumed): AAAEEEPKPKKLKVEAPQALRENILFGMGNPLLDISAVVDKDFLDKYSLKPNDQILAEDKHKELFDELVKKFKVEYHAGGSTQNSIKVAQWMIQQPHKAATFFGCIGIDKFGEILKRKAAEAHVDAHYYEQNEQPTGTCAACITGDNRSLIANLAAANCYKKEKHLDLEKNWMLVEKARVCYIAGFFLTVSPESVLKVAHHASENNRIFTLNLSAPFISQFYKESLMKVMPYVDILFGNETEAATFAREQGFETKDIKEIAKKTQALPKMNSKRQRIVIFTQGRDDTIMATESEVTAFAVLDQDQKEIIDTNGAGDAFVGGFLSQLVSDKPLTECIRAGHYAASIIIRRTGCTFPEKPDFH
# [8] = target: Integrin alpha-4 (Homo sapiens) (UniProt P13612); experiment: Inhibition of alpha4 integrin-dependent cell migration in CHO cells expressing alpha4 integrin after 12 hrs by wound healing assay; type: cell-based
structure (smiles),measurement,setting,value
Nc1ccc(-c2cc3c(Nc4cccc(Cl)c4)ncnc3[nH]2)cc1,Activity,[1],Active
same,Activity,[2],40%
same,IC50,[3],500 nM
same,Activity,[4],40%
same,Activity,[5],40%
same,Activity,[6],40%
same,Activity,[7],Active
same,Activity,[8],Dose-dependent effect
